One compound from the NIST ThermoML archive (doi:10.1016/j.jct.2014.03.009) can be followed below.

± gives the expanded uncertainty stated by the source.

The conditions of this data set: 298 K; 101.33 kPa; Crystal; X-ray diffraction.

`O.O.O.O.O=C([O-])[C@H](O)[C@@H](O)[C@H](O)[C@H](O)CO.O=C([O-])[C@H](O)[C@@H](O)[C@H](O)[C@H](O)CO.[Mn+2]` [manganese(II) D-gluconate tetrahydrate]: the mass density (in general, the mass of a sample divided by its volume) is reported as 1713 ± 8 kg/m3.
